Experimental data: ChEMBL document CHEMBL4725220, “Small molecule inhibitors of IκB kinase β: A chip-based screening and molecular docking simulation” (Bioorg Med Chem, 2020)

Target: T1, Inhibitor of nuclear factor kappa-B kinase subunit beta (Homo sapiens, UniProt O14920)
T1 sequence (O14920 whole entry): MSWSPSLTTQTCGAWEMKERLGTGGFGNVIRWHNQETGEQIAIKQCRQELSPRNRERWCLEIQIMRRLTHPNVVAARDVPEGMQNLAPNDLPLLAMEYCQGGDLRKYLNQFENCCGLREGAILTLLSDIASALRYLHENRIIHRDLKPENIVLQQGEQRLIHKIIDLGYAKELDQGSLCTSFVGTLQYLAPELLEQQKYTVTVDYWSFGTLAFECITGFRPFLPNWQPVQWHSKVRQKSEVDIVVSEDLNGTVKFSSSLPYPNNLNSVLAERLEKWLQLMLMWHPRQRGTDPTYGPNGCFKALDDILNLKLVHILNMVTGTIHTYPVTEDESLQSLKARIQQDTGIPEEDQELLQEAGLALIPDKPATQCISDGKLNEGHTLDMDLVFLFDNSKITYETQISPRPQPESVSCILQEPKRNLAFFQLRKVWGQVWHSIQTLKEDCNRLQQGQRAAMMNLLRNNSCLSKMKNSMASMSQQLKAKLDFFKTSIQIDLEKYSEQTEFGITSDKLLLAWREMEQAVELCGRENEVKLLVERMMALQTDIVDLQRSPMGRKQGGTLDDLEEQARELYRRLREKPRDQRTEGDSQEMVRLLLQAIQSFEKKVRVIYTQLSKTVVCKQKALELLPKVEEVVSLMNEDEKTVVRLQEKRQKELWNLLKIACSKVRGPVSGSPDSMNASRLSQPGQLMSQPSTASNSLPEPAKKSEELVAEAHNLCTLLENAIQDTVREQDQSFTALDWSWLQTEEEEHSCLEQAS
Assay: Inhibition of IKKbeta (unknown origin) assessed as substrate phosphorylation using IkappaBalpha as substrate incubated for 1 hr in presence of ATP by chip-based fluorescence assay

Row | Compound | IC50
1 | O=C(c1ccc(Nc2nccc(-c3cc4ccccc4s3)n2)cc1)N1CCC(N2CCCC2)CC1 | 6.46 µM
2 | COc1ccc(-c2cc(=O)c3c(O)cc(O[C@@H]4O[C@H](CO[C@@H]5O[C@@H](C)[C@H](O)[C@@H](O)[C@H]5O)[C@@H](O)[C@H](O)[C@H]4O)cc3o2)cc1O [DIOSMIN] | 3.89 µM

The remaining lines, values ahead:

Row | IC50 | Compound
3 | 1.98 µM | O=c1oc2c(O)c(O)cc3c(=O)oc4c(O)c(O)cc1c4c23 [ELLAGIC ACID]
4 | 2.18 µM | O=C1C=C2C[C@]3(O)COc4c(ccc(O)c4O)C3=C2C=C1O
5 | 5.4 µM | O=C(O)C1=CC(=C(c2ccc(O)c(C(=O)O)c2)c2ccc(O)c(C(=O)O)c2)C=CC1=O [AURINTRICARBOXYLIC ACID]
